Results on 17 molecules are retold here after PubChem BioAssay AID330 (DTP/NCI, 2004).

Several values for one entry are separate records, joined by “and”; a condition that tells them apart may be missing. Equal values may be shown once. Toxic doses and inconclusive results are not listed.

For the experiment, the system named is P388 leukemia ip, CD2F1 mice, survival T/C. Put plainly: NCI In Vivo Anticancer Drug Screen. Data for tumor model P388 Leukemia (intraperitoneal) in CD2F1 (CDF1) mice. The conditions noted are these: endpoint: median survival time, higher = longer survival. A digest of the protocol:
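Mice carrying the transplanted tumor received test compound or vehicle. Survival was recorded in each group, and the value is the treated-group measurement divided by that of the vehicle-treated control group.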

The mark [1] stands for this setting: dose: 25.0 mg/kg/injection, schedule: Q04DX003 (ip), vehicle: Klucel (hydroxypropylcellulose) (HPC).
[2] abbreviates: dose: 50.0 mg/kg/injection, schedule: Q01DX009 (ip), vehicle: saline with Tween-80.
[3] abbreviates: dose: 100.0 mg/kg/injection, schedule: Q01DX009 (ip), vehicle: saline with Tween-80.
Where [4] appears, read: dose: 200.0 mg/kg/injection, schedule: Q01DX009 (ip), vehicle: saline with Tween-80.
Where [5] appears, read: dose: 50.0 mg/kg/injection, schedule: Q01DX009 (ip), vehicle: saline.
Setting [6] is: dose: 100.0 mg/kg/injection, schedule: Q01DX009 (ip), vehicle: saline.

For the molecule `CN(C)c1nc(N(C)C)nc(N(C)C)n1`, the T/C was 110 % of control (dose: 6.25 mg/kg/injection, schedule: Q01DX009 (ip), vehicle: saline with Tween-80); 105 % of control and 108 % of control and 96 % of control (dose: 12.5 mg/kg/injection, schedule: Q01DX009 (ip), vehicle: saline with Tween-80); 108 % of control (dose: 20.0 mg/kg/injection, schedule: Q01DX009 (ip), vehicle: saline with Tween-80); 103 % of control and 104 % of control (dose: 25.0 mg/kg/injection, schedule: Q01DX001 (ip), vehicle: Klucel (hydroxypropylcellulose) (HPC)); 98 % of control and 103 % of control and 107 % of control (dose: 25.0 mg/kg/injection, schedule: Q01DX009 (ip), vehicle: saline with Tween-80); 100 % of control and 112 % of control (dose: 25.0 mg/kg/injection, schedule: Q04DX002 (ip), vehicle: Klucel (hydroxypropylcellulose) (HPC)). In addition, the T/C is 110 % of control and 115 % of control under setting [1]; 109 % of control (dose: 40.0 mg/kg/injection, schedule: Q01DX009 (ip), vehicle: saline with Tween-80); 104 % of control and 109 % of control (2×) under setting [2]; 105 % of control (dose: 75.0 mg/kg/injection, schedule: Q01DX005 (ip), vehicle: Klucel (hydroxypropylcellulose) (HPC)); 111 % of control (dose: 80.0 mg/kg/injection, schedule: Q01DX009 (ip), vehicle: saline with Tween-80); 114 % of control and 119 % of control and 97 % of control under setting [3]. Besides, the T/C is 105 % of control (dose: 150.0 mg/kg/injection, schedule: Q01DX005 (ip), vehicle: Klucel (hydroxypropylcellulose) (HPC)); 118 % of control (dose: 160.0 mg/kg/injection, schedule: Q01DX009 (ip), vehicle: saline with Tween-80); 108 % of control under setting [4].

In the case of `O=C1C[CH]([Ge](=[O])[O][Ge](=[O])[CH]2CC(=O)NC(=O)N2)NC(=O)N1` (centres undefined), the T/C was 97 % of control (dose: 15.0 mg/kg/injection, schedule: Q01DX005 (ip), vehicle: water); 99 % of control (dose: 30.0 mg/kg/injection, schedule: Q01DX005 (ip), vehicle: water); 111 % of control (dose: 60.0 mg/kg/injection, schedule: Q01DX005 (ip), vehicle: water); 103 % of control and 118 % of control (dose: 120.0 mg/kg/injection, schedule: Q01DX005 (ip), vehicle: water); 95 % of control (dose: 240.0 mg/kg/injection, schedule: Q01DX005 (ip), vehicle: water).

`OCC(O)C(O)C(O)Cc1ccc(O)cc1O` (centres undefined): the T/C is 98 % of control under setting [5]; 106 % of control under setting [6]; 104 % of control (dose: 200.0 mg/kg/injection, schedule: Q01DX009 (ip), vehicle: saline).

For `O.O=[N+]([O-])O.[NH2-].[NH2-].[Pt+2]`, the T/C by setting is: (dose: 0.04 mg/kg/injection, schedule: Q01DX009 (ip), vehicle: other) 118 % of control; (dose: 0.16 mg/kg/injection, schedule: Q01DX009 (ip), vehicle: other) 91 % of control; (dose: 0.31 mg/kg/injection, schedule: Q01DX009 (ip), vehicle: other) 150 % of control.

Turning to `CN(C)c1ccc(/C=C/c2ccc(Br)cc2)cc1`, the T/C under setting [2] was 89 % of control, the T/C under setting [3] is 88 % of control and the T/C under setting [4] was 89 % of control.

On to `CCN(CC)C(=S)SCc1cc(C)c(O)c(C)c1`, for which the T/C by setting is: (dose: 100.0 mg/kg/injection, schedule: Q01DX001 (ip), vehicle: saline) 98 % of control; (dose: 200.0 mg/kg/injection, schedule: Q01DX001 (ip), vehicle: saline) 100 % of control; (dose: 400.0 mg/kg/injection, schedule: Q01DX001 (ip), vehicle: saline) 100 % of control.

Turning to `CNC(=O)Nc1[nH]c(=O)ncc1I`, the T/C is 100 % of control (dose: 30.0 mg/kg/injection, schedule: Q01DX005 (ip), vehicle: Klucel (hydroxypropylcellulose) (HPC)); 96 % of control (dose: 60.0 mg/kg/injection, schedule: Q01DX005 (ip), vehicle: Klucel (hydroxypropylcellulose) (HPC)); 117 % of control (dose: 120.0 mg/kg/injection, schedule: Q01DX005 (ip), vehicle: Klucel (hydroxypropylcellulose) (HPC)).

With `CCOC(=O)NNCC(=O)OCc1ccccc1`, the T/C runs as follows: (dose: 25.0 mg/kg/injection, schedule: Q01DX009 (ip), vehicle: other) 90 % of control; (dose: 50.0 mg/kg/injection, schedule: Q01DX009 (ip), vehicle: other) 93 % of control; (dose: 100.0 mg/kg/injection, schedule: Q01DX009 (ip), vehicle: other) 100 % of control; (dose: 200.0 mg/kg/injection, schedule: Q01DX009 (ip), vehicle: other) 109 % of control.

Turning to `CC(C)(C)/C(=N\Nc1ccc([N+](=O)[O-])cc1[N+](=O)[O-])c1ccccc1`, the T/C is 91 % of control (dose: 3.13 mg/kg/injection, schedule: Q01DX001 (ip), vehicle: saline with Tween-80); 116 % of control (dose: 6.25 mg/kg/injection, schedule: Q01DX001 (ip), vehicle: saline with Tween-80); 95 % of control (dose: 12.5 mg/kg/injection, schedule: Q01DX001 (ip), vehicle: saline with Tween-80).

With `CC(C)N(C(=O)c1ccc(Cl)c(Cl)c1)C(C)C`, the T/C was 102 % of control and 103 % of control (dose: 12.5 mg/kg/injection, schedule: Q04DX003 (ip), vehicle: saline with Tween-80); 102 % of control and 97 % of control (dose: 25.0 mg/kg/injection, schedule: Q04DX003 (ip), vehicle: saline with Tween-80); 100 % of control and 97 % of control (dose: 50.0 mg/kg/injection, schedule: Q04DX003 (ip), vehicle: saline with Tween-80); 103 % of control and 106 % of control (2×) (dose: 100.0 mg/kg/injection, schedule: Q04DX003 (ip), vehicle: saline with Tween-80); 105 % of control (dose: 200.0 mg/kg/injection, schedule: Q04DX003 (ip), vehicle: saline with Tween-80); 101 % of control (dose: 400.0 mg/kg/injection, schedule: Q04DX003 (ip), vehicle: saline with Tween-80).

As to `O=C1CC(c2ccccc2)C(c2ccccc2)C1=O` (centres undefined), the T/C by setting is: (dose: 12.5 mg/kg/injection, schedule: Q04DX003 (ip), vehicle: Klucel (hydroxypropylcellulose) (HPC)) 107 % of control; under setting [1], 102 % of control; (dose: 50.0 mg/kg/injection, schedule: Q04DX003 (ip), vehicle: Klucel (hydroxypropylcellulose) (HPC)) 102 % of control.

For the molecule `CCCCC[CH2][GeH]([CH2]CCCCC)[O][GeH]([CH2]CCCCC)[CH2]CCCCC`, the T/C was 100 % of control and 97 % of control (dose: 12.5 mg/kg/injection, schedule: Q01DX009 (ip), vehicle: saline); 104 % of control and 90 % of control (dose: 25.0 mg/kg/injection, schedule: Q01DX009 (ip), vehicle: saline); 100 % of control and 101 % of control and 106 % of control under setting [5]; 120 % of control and 97 % of control under setting [6].

For the molecule `Cc1ccc(C2=CSC3=NCCN23)cc1Cl`, the T/C was 99 % of control (dose: 12.5 mg/kg/injection, schedule: Q01DX005 (ip), vehicle: Klucel (hydroxypropylcellulose) (HPC)); 101 % of control (dose: 25.0 mg/kg/injection, schedule: Q01DX005 (ip), vehicle: Klucel (hydroxypropylcellulose) (HPC)); 107 % of control (dose: 50.0 mg/kg/injection, schedule: Q01DX005 (ip), vehicle: Klucel (hydroxypropylcellulose) (HPC)).

`OCCCCCCCCCCCN1CCOCC1`: the T/C by setting is: (dose: 50.0 mg/kg/injection, schedule: Q01DX005 (ip), vehicle: saline with Tween-80) 106 % of control; (dose: 100.0 mg/kg/injection, schedule: Q01DX005 (ip), vehicle: saline with Tween-80) 98 % of control; (dose: 200.0 mg/kg/injection, schedule: Q01DX005 (ip), vehicle: saline with Tween-80) 101 % of control.

Take `CC1C2CCC3C(O)C2(CC(O)C2(O)C1CC(O)C2(C)C)CC3(C)O` (centres undefined): the T/C reads like this: (dose: 0.25 mg/kg/injection, schedule: Q01DX009 (ip), vehicle: Klucel (hydroxypropylcellulose) (HPC)) 101 % of control; (dose: 0.5 mg/kg/injection, schedule: Q01DX009 (ip), vehicle: Klucel (hydroxypropylcellulose) (HPC)) 93 % of control; (dose: 1.0 mg/kg/injection, schedule: Q01DX009 (ip), vehicle: Klucel (hydroxypropylcellulose) (HPC)) 95 % of control.

On to `Cn1ccc(N)nc1=O`, for which the T/C was 101 % of control (dose: 50.0 mg/kg/injection, schedule: Q01DX005 (ip), vehicle: saline); 107 % of control (dose: 100.0 mg/kg/injection, schedule: Q01DX005 (ip), vehicle: saline); 104 % of control (dose: 200.0 mg/kg/injection, schedule: Q01DX005 (ip), vehicle: saline).

`CCCCCC(CN(C)C)C(=O)CC(SCC)c1ccccc1` (centres undefined): the T/C is, setting by setting: (dose: 12.5 mg/kg/injection, schedule: Q01DX009 (ip), vehicle: water) 111 % of control; (dose: 25.0 mg/kg/injection, schedule: Q01DX009 (ip), vehicle: water) 100 % of control.
